Earlier results in EP0713864A1, “Substituted benzoylguanidines, process for their preparation, their use as medicament of diagnostic agent as well as medicaments containing them” (HOECHST AKTIENGESELLSCHAFT, priority 1994, dated 1996).

Test system: Kammerflimmern
Settings: isolated rat hearts; Eur. Heart J. 9 (suppl.1): 167 (1988)

Row | SMILES | Unterdrückung eines künstlich ausgelösten Kammerflimmerns
1 | N=C(N)NC(=O)c1nc(Cl)c(N)nc1N [Amilorid] | völlig unterdrückt
2 | CCN(c1nc(N)c(C(=O)NC(=N)N)nc1Cl)C(C)C [Ethylisopropylamilorid] | Noch potenter als Amilorid
